Source: patent US10681909B2, “Herbicidal triazoles” (FMC Corporation, priority 2014, dated 2020)

How the values were obtained:
Settings in all cases: scale 0 to 100
[1] = system: barnyardgrass; assay: Test E postemergence; format: in vivo, Echinochloa crus-galli
From the text: (§1) Seeds of plant species selected from corn (Zea mays), soybean (Glycine max), lambsquarters (Chenopodium album), poinsettia, wild (wild poinsettia, Euphorbia heterophylla), pigweed, palmer (palmer pigweed, Amaranthus palmeri), waterhemp (common waterhemp, Amaranthus rudis), surinam grass (Brachiaria decumbens), crabgrass, large (large crabgrass, Digitaria sanguinalis), crabgrass, Brazilian (Brazilian crabgrass, Digitaria horizontalis), panicum, fall (fall panicum, Panicum dichotomiflorum), foxtail, giant (giant foxtail, Setaria faberii), foxtail, green (green foxtail, Setaria viridis), goosegrass (Eleusine indica), johnsongrass (Sorghum halepense), ragweed (common ragweed, Ambrosia elatior), barnyardgrass (Echinochloa crus-galli), sandbur (southern sandbur, Cenchrus echinatus), arrowleaf sida (Sida rhombifolia), ryegrass, Italian (Italian ryegrass, Lolium multiflorum), dayflower, VA (Virginia dayflower, Commelina virginica), field bindweed (Convolvulus arvensis), cocklebur (common cocklebur, Xanthium strumarium), morningglory (Ipomoea coccinea), nightshade (eastern black nightshade, Solanum ptycanthum), kochia (Kochia scoparia), nutsedge, yellow (yellow nutsedge, Cyperus esculentus), smartweed (ladysthumb smartweed, Polygonum persicaria), velvetleaf (Abutilon theophrasti), horseweed (Conyza canadensis), and beggarticks (hairy beggarticks, Bidens pilosa), were planted into a silt loam soil and treated preemergence with test chemicals formulated in a non-phytotoxic solvent mixture which included a surfactant.
(§2) At the same time, plants from these crop and weed species and also waterhemp_RES1, (ALS & Triazine resistant common waterhemp, Amaranthus rudis), and waterhemp_RES2, (ALS & HPPD resistant common waterhemp, Amaranthus rudis) were planted in pots containing Sunshine Redi-Earth® planting medium comprising spaghnum peat moss, vermiculite, starter nutrients and dolomitic limestone were treated with postemergence applications of test chemicals formulated in the same manner. Plants ranged in height from 2 to 18 cm for postemergence treatments (1- to 4-leaf stage). Treated plants and controls were maintained in a greenhouse for 14 to 21 d, after which time all species were compared to controls and visually evaluated. Plant response ratings, summarized in Table E, are based on a scale of 0 to 100 where 0 is no effect and 100 is complete control. A dash (-) response means no test result.

[2] = system: nightshade; assay: Test E preemergence; format: in vivo, Solanum ptycanthum
From the text: as §1, §2

[3] = system: velvetleaf; assay: Test E preemergence; format: in vivo, Abutilon theophrasti
From the text: as §1, §2

[4] = system: lambsquarters; assay: Test E preemergence; format: in vivo, Chenopodium album
From the text: as §1, §2

[5] = system: johnsongrass; assay: Test E preemergence; format: in vivo, Sorghum halepense
From the text: as §1, §2

[6] = system: beggarticks; assay: Test E postemergence; format: in vivo, Bidens pilosa
From the text: as §1, §2

[7] = system: panicum, fall; assay: Test E postemergence; format: in vivo, Panicum dichotomiflorum
From the text: as §1, §2

[8] = system: pigweed, palmer; assay: Test E preemergence; format: in vivo, Amaranthus palmeri
From the text: as §1, §2

[9] = system: goosegrass; assay: Test E preemergence; format: in vivo, Eleusine indica
From the text: as §1, §2

[10] = system: corn; assay: Test E postemergence; format: in vivo, Zea mays
From the text: as §1, §2

[11] = system: soybean; assay: Test E postemergence; format: in vivo, Glycine max
From the text: as §1, §2

[12] = system: field bindweed; assay: Test E preemergence; format: in vivo, Convolvulus arvensis
From the text: as §1, §2

[13] = system: waterhemp; assay: Test E postemergence; format: in vivo, Amaranthus rudis
From the text: as §1, §2

[14] = system: waterhemp_RES1 (ALS & Triazine resistant common waterhemp); assay: Test E postemergence; format: in vivo, Amaranthus rudis
From the text: as §1, §2

[15] = system: waterhemp_RES2 (ALS & HPPD resistant common waterhemp); assay: Test E postemergence; format: in vivo, Amaranthus rudis
From the text: as §1, §2

[16] = system: sandbur; assay: Test E postemergence; format: in vivo, Cenchrus echinatus
From the text: as §1, §2

[17] = system: field bindweed; assay: Test E postemergence; format: in vivo, Convolvulus arvensis
From the text: as §1, §2

[18] = system: barnyardgrass; assay: Test E preemergence; format: in vivo, Echinochloa crus-galli
From the text: as §1, §2

[19] = system: arrowleaf sida; assay: Test E preemergence; format: in vivo, Sida rhombifolia
From the text: as §1, §2

[20] = system: arrowleaf sida; assay: Test E postemergence; format: in vivo, Sida rhombifolia
From the text: as §1, §2

SMILES: CCOc1nc(-c2ccccc2)nn1Cc1ccnc(C(F)(F)F)c1 [Compound 27]
- Plant response rating ([1]; 16 g ai/ha): 15
- Plant response rating ([1]; 31 g ai/ha): 20
- Plant response rating ([1]; 62 g ai/ha): 30
- Plant response rating ([1]; 125 g ai/ha): 50
- Plant response rating ([2]; 16 g ai/ha): 0
- Plant response rating ([2]; 31 g ai/ha): 50
- Plant response rating ([2]; 62 g ai/ha): 98
- Plant response rating ([2]; 125 g ai/ha): 100
- Plant response rating ([3]; 16 g ai/ha): 35
- Plant response rating ([3]; 31 g ai/ha): 50
- Plant response rating ([3]; 62 g ai/ha): 50
- Plant response rating ([3]; 125 g ai/ha): 95
- Plant response rating ([4]; 16 g ai/ha): 80
- Plant response rating ([4]; 31 g ai/ha): 100
- Plant response rating ([4]; 62 g ai/ha): 100
- Plant response rating ([4]; 125 g ai/ha): 100
- Plant response rating ([5]; 16 g ai/ha): 100
- Plant response rating ([5]; 31 g ai/ha): 95
- Plant response rating ([5]; 62 g ai/ha): 100
- Plant response rating ([5]; 125 g ai/ha): 100
- Plant response rating ([6]; 16 g ai/ha): 40
- Plant response rating ([6]; 31 g ai/ha): 50
- Plant response rating ([6]; 62 g ai/ha): 50
- Plant response rating ([6]; 125 g ai/ha): 55
- Plant response rating ([7]; 16 g ai/ha): 10
- Plant response rating ([7]; 31 g ai/ha): 10
- Plant response rating ([7]; 62 g ai/ha): 15
- Plant response rating ([7]; 125 g ai/ha): 30
- Plant response rating ([8]; 16 g ai/ha): 85
- Plant response rating ([8]; 31 g ai/ha): 100
- Plant response rating ([8]; 62 g ai/ha): 100
- Plant response rating ([8]; 125 g ai/ha): 100
- Plant response rating ([9]; 16 g ai/ha): 80
- Plant response rating ([9]; 31 g ai/ha): 98
- Plant response rating ([9]; 62 g ai/ha): 95
- Plant response rating ([9]; 125 g ai/ha): 100
- Plant response rating ([10]; 16 g ai/ha): 10
- Plant response rating ([10]; 31 g ai/ha): 15
- Plant response rating ([10]; 62 g ai/ha): 20
- Plant response rating ([10]; 125 g ai/ha): 25
- Plant response rating ([11]; 16 g ai/ha): 70
- Plant response rating ([11]; 31 g ai/ha): 80
- Plant response rating ([11]; 62 g ai/ha): 80
- Plant response rating ([11]; 125 g ai/ha): 95
- Plant response rating ([12]; 16 g ai/ha): 0
- Plant response rating ([12]; 31 g ai/ha): 0
- Plant response rating ([12]; 62 g ai/ha): 60
- Plant response rating ([12]; 125 g ai/ha): 90
- Plant response rating ([13]; 16 g ai/ha): 95
- Plant response rating ([13]; 31 g ai/ha): 98
- Plant response rating ([13]; 62 g ai/ha): 95
- Plant response rating ([13]; 125 g ai/ha): 95
- Plant response rating ([14]; 16 g ai/ha): 95
- Plant response rating ([14]; 31 g ai/ha): 95
- Plant response rating ([14]; 62 g ai/ha): 95
- Plant response rating ([14]; 125 g ai/ha): 98
- Plant response rating ([15]; 16 g ai/ha): 90
- Plant response rating ([15]; 31 g ai/ha): 95
- Plant response rating ([15]; 62 g ai/ha): 90
- Plant response rating ([15]; 125 g ai/ha): 90
- Plant response rating ([16]; 16 g ai/ha): 0
- Plant response rating ([16]; 31 g ai/ha): 20
- Plant response rating ([16]; 62 g ai/ha): 30
- Plant response rating ([16]; 125 g ai/ha): 30
- Plant response rating ([17]; 16 g ai/ha): 50
- Plant response rating ([17]; 31 g ai/ha): 60
- Plant response rating ([17]; 62 g ai/ha): 70
- Plant response rating ([17]; 125 g ai/ha): 80
- Plant response rating ([18]; 16 g ai/ha): 10
- Plant response rating ([18]; 31 g ai/ha): 25
- Plant response rating ([18]; 62 g ai/ha): 90
- Plant response rating ([18]; 125 g ai/ha): 95
- Plant response rating ([19]; 16 g ai/ha): 20
- Plant response rating ([19]; 31 g ai/ha): 20
- Plant response rating ([19]; 62 g ai/ha): 75
- Plant response rating ([19]; 125 g ai/ha): 90
- Plant response rating ([20]; 16 g ai/ha): 70
- Plant response rating ([20]; 31 g ai/ha): 80
- Plant response rating ([20]; 62 g ai/ha): 90
- Plant response rating ([20]; 125 g ai/ha): 100
